# Laboratory results published in US9540392B2, “Thienopyrimidines” (BAYER PHARMA AKTIENGESELLSCHAFT, priority 2012, dated 2017).
# Target: T1, human full-length MKNK1 (Homo sapiens, UniProt Q9BUB5, T385D)
# T1 construct: GST (N); purchased Carna Biosciences 02-145; host or cells: insect cells (baculovirus expression system)
# Assay: MKNK1 kinase high ATP assay (TR-FRET)
# Assay type: biochemical
# Conditions: 2 mM ATP, after preincubation with MKNK1; read-out: MKNK1 IC50 (MKNK1 high ATP)
# Procedure, shortened: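 Compound was preincubated 15 min at 22° C. with MKNK1 in 50 mM HEPES pH 7.5, 5 mM MgCl2, 1.0 mM DTT, then the reaction ran 30 min at 22° C. with 2 mM ATP and 0.06 μM biotinylated peptide (final).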
# T1 sequence (Q9BUB5 1-424 isoform Q9BUB5-2 T344D): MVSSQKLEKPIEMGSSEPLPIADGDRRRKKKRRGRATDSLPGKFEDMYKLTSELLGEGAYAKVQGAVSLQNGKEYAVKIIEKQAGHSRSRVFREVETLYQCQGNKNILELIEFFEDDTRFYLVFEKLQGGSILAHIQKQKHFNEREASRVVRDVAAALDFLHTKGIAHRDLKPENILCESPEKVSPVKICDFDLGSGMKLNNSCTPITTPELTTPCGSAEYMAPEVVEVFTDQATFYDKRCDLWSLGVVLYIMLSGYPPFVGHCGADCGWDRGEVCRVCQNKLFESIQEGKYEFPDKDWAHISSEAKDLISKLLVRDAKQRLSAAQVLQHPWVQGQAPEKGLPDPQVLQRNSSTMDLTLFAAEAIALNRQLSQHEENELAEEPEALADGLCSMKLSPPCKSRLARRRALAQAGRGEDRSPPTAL
row,IC50 [nM],Compound
1,0.5,"COCCN(CCO)C(=O)C1CCc2c(sc3ncnc(Nc4cc5cn[nH]c5cc4OC)c23)C1 (racemic) [Example 207, (RS)—N-(2-Hydroxyethyl)-N-(2-methoxyethyl)-4-[(6-methoxy-1H-indazol-5-yl)amino]-5,6,7,8-tetrahydro[1]benzothieno[2,3-d]pyrimidine-7-carboxamide]"
2,0.7,"CCOc1cc2[nH]ncc2cc1Nc1ncnc2sc3c(c12)CCC(C(=O)N(C)CC(F)F)C3 (racemic) [Example 226, (RS)—N-(2,2-Difluoroethyl)-4-[(6-ethoxy-1H-indazol-5-yl)amino]-N-methyl-5,6,7,8-tetrahydro[1]benzothieno[2,3-d]pyrimidine-7-carboxamide]"
3,40.6,"O=C(C1CCc2c(sc3ncnc(Nc4ccc5[nH]ncc5c4)c23)C1)N1CCCC1CO (racemic) [Example 186, (RS)-[2-(hydroxymethyl)pyrrolidin-1-yl][4-(1H-indazol-5-ylamino)-5,6,7,8-tetrahydro[1]benzothieno[2,3-d]pyrimidin-7-yl]methanone]"
4,0.2,"CN(C)C(=O)C1CCc2c(sc3ncnc(Nc4cc5cn[nH]c5cc4N(C)C)c23)C1 (racemic) [Example 251, (RS)-4-{[6-(Dimethylamino)-1H-indazol-5-yl]amino}-N,N-dimethyl-5,6,7,8-tetrahydro[1]benzothieno[2,3-d]pyrimidine-7-carboxamide]"
5,7.6,"Cn1nccc1CNC(=O)C1CCc2c(sc3ncnc(Nc4ccc5[nH]ncc5c4)c23)C1 (racemic) [Example 136, (RS)-4-(1H-indazol-5-ylamino)-N-[(1-methyl-1H-pyrazol-5-yl)methyl]-5,6,7,8-tetrahydro[1]benzothieno[2,3-d]pyrimidine-7-carboxamide]"
6,6,"CCN(CCC#N)C(=O)C1CCc2c(sc3ncnc(Nc4ccc5[nH]ncc5c4)c23)C1 (racemic) [Example 190, (RS)-N-(2-cyanoethyl)-N-ethyl-4-(1H-indazol-5-ylamino)-5,6,7,8-tetrahydro[1]benzothieno[2,3-d]pyrimidine-7-carboxamide]"
7,16.8,"Cn1ccnc1CNC(=O)C1CCc2c(sc3ncnc(Nc4ccc5[nH]ncc5c4)c23)C1 (racemic) [Example 165, (RS)-4-(1H-indazol-5-ylamino)-N-[(1-methyl-1H-imidazol-2-yl)methyl]-5,6,7,8-tetrahydro[1]benzothieno[2,3-d]pyrimidine-7-carboxamide]"
8,0.4,"CCOc1cc2[nH]ncc2cc1Nc1ncnc2sc3c(c12)CCC(C(=O)N(C)CCN)C3 (racemic) [Example 271, (RS)-5-({7-[(2-Ammonioethyl)(methyl)carbamoyl]-5,6,7,8-tetrahydro[1]benzothieno[2,3-d]pyrimidin-4-yl}amino)-6-ethoxy-1H-indazol-1-ium bis(trifluoroacetate)]"
9,0.9,"CC(C)Oc1cc2[nH]ncc2cc1Nc1ncnc2sc3c(c12)CCC(C(=O)N1CC2(CCS2(=O)=O)C1)C3 (racemic) [Example 222, (RS)-(1,1-Dioxido-1-thia-6-azaspiro[3.3]hept-6-yl)(4-{[6-(propan-2-yloxy)-1H-indazol-5-yl]amino}-5,6,7,8-tetrahydro[1]benzothieno[2,3-d]pyrimidin-7-yl)methanone]"
10,2.2,"COc1cc2[nH]ncc2cc1Nc1ncnc2sc3c(c12)CCC(C(=O)N1CC2(CCS2(=O)=O)C1)C3 (racemic) [Example 264, (RS)-(1,1-Dioxido-1-thia-6-azaspiro[3.3]hept-6-yl){4-[(6-methoxy-1H-indazol-5-yl)amino]-5,6,7,8-tetrahydro[1]benzothieno[2,3-d]pyrimidin-7-yl}methanone]"
11,0.7,"CCOc1cc2[nH]ncc2cc1Nc1ncnc2sc3c(c12)CCC(C(=O)N(C)CCOC)C3 (racemic) [Example 245, (RS)-4-[(6-Ethoxy-1H-indazol-5-yl)amino]-N-(2-methoxyethyl)-N-methyl-5,6,7,8-tetrahydro[1]benzothieno[2,3-d]pyrimidine-7-carboxamide]"
12,16.8,"Cn1cncc1CNC(=O)C1CCc2c(sc3ncnc(Nc4ccc5[nH]ncc5c4)c23)C1 (racemic) [Example 152, (RS)-4-(1H-indazol-5-ylamino)-N-[(1-methyl-1H-imidazol-5-yl)methyl]-5,6,7,8-tetrahydro[1]benzothieno[2,3-d]pyrimidine-7-carboxamide]"

# Second part, the molecule before the results:
row,Compound,IC50 [nM]
1,"C#CCN(C)C(=O)C1CCc2c(sc3ncnc(Nc4ccc5[nH]ncc5c4)c23)C1 (stereo not shown) [Example 35, 4-(1H-Indazol-5-ylamino)-N-methyl-N-(prop-2-yn-1-yl)-5,6,7,8-tetrahydro[1] benzothieno [2,3-d]pyrimidine-7-carboxamide]",5
2,"COCCNC(=O)C1CCc2c(sc3ncnc(Nc4ccc5[nH]ncc5c4)c23)C1 (stereo not shown) [Example 50, 4-(1H-Indazol-5-ylamino)-N-(2-methoxyethyl)-5,6,7,8-tetrahydro[1] benzothieno [2,3-d]pyrimidine-7-carboxamide]",14
3,"CC(O)CN(C)C(=O)C1CCc2c(sc3ncnc(Nc4ccc5[nH]ncc5c4)c23)C1 (racemic) [Example 122, (RS)-N-(2-hydroxypropyl)-4-(1H-indazol-5-ylamino)-N-methyl-5,6,7,8-tetrahydro[1]benzothieno[2,3-d]pyrimidine-7-carboxamide]",11.2
4,"CN1CCN(C(=O)C2CCc3c(sc4ncnc(Nc5ccc6[nH]ncc6c5)c34)C2)CC1 (stereo not shown) [Example 8, [4-(1H-Indazol-5-ylamino)-5,6,7,8-tetrahydro[1]benzothieno[2,3-d]pyrimidin-7-yl](4-methylpiperazin-1-yl)methanone]",11
5,"CN(C(=O)C1CCc2c(sc3ncnc(Nc4ccc5[nH]ncc5c4)c23)C1)c1ccccc1 (racemic) [Example 91, (RS)-4-(1H-indazol-5-ylamino)-N-methyl-N-phenyl-5,6,7,8-tetrahydro[1]benzothieno[2,3-d]pyrimidine-7-carboxamide]",6.6
6,"CC1CCN(C(=O)C2CCc3c(sc4ncnc(Nc5ccc6[nH]ncc6c5)c34)C2)CC1 (racemic) [Example 105, (RS)-[4-(1H-indazol-5-ylamino)-5,6,7,8-tetrahydro[1]benzothieno[2,3-d]pyrimidin-7-yl](4-methylpiperidin-1-yl)methanone]",16.8
7,"CC1CCCN(C(=O)C2CCc3c(sc4ncnc(Nc5ccc6[nH]ncc6c5)c34)C2)C1 (racemic) [Example 104, (RS)-[4-(1H-indazol-5-ylamino)-5,6,7,8-tetrahydro[1]benzothieno[2,3-d]pyrimidin-7-yl](3-methylpiperidin-1-yl)methanone]",7.4
8,"NS(=O)(=O)c1ccc(CNC(=O)C2CCc3c(sc4ncnc(Nc5ccc6[nH]ncc6c5)c34)C2)cc1 (racemic) [Example 121, (RS)-4-(1H-indazol-5-ylamino)-N-(4-sulfamoylbenzyl)-5,6,7,8-tetrahydro[1]benzothieno[2,3-d]pyrimidine-7-carboxamide]",4
9,"O=C(NCCCN1CCCC1=O)C1CCc2c(sc3ncnc(Nc4ccc5[nH]ncc5c4)c23)C1 (stereo not shown) [Example 49, 4-(1H-Indazol-5-ylamino)-N-[3-(2-oxopyrrolidin-1-yl)propyl]-5,6,7,8-tetrahydro[1] benzothieno [2,3-d]pyrimidine-7-carboxamide]",13
10,"Cc1ccc(NC(=O)C2CCc3c(sc4ncnc(Nc5ccc6[nH]ncc6c5)c34)C2)cc1 (stereo not shown) [Example 17, 4-(1H-indazol-5-ylamino)-N-(4-methylphenyl)-5,6,7,8-tetrahydro[1]benzothieno[2,3-d]pyrimidine-7-carboxamide]",5
